We go through 16 molecules from US20250320213A1, “Nitrogen-Containing Heterocyclic Compounds” (Pfizer Inc., priority 2024, published 2025).

SMILES strings stand for the structures.

This experiment has as its target T1, STAT6 (Homo sapiens, UniProt P42226).
T1 construct: stably transfected HaCaT keratinocyte cell line, which expresses NanoLuc luciferase reporter gene under the transcriptional control of the STAT6 responsive promoter; endogenous in cells; host or cells: HaCaT keratinocyte reporter cell line (stably transfected with a NanoLuc reporter)
T1 sequence (P42226 1-847): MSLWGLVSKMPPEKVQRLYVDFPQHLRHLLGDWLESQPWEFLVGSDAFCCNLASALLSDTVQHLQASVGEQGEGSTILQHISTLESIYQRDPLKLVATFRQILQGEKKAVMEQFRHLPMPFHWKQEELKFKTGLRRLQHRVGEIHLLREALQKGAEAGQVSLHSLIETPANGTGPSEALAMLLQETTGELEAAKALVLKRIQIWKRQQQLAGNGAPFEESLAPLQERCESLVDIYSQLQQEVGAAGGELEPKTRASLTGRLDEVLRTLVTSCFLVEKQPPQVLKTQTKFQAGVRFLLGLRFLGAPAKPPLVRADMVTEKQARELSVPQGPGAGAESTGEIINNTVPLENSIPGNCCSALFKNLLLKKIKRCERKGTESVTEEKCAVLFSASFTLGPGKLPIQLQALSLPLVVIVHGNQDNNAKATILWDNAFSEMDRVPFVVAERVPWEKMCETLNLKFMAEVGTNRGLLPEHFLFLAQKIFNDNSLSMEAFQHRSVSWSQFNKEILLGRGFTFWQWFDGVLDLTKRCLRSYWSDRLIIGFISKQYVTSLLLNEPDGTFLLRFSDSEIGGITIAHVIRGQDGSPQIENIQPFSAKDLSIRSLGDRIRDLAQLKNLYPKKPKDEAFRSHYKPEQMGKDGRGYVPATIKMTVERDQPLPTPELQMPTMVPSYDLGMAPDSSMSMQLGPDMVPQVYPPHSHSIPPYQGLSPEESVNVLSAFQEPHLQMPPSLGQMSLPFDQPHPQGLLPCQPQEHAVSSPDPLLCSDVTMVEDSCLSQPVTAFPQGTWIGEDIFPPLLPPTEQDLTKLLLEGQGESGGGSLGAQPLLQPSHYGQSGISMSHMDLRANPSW
Description: STAT6 Reporter Luciferase Assay (IL-13 stimulated HaCaT keratinocyte NanoLuc reporter cells). The settings on record: IL-13 stimulated HaCaT STAT6 NanoLuc reporter cells; read-out: Reporter EC50. It counts as cell-based. The method, boiled down: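 IL-13 (0.12 nM, 4 h) stimulated STAT6 reporter activity in HaCaT cells after a 2 h compound pre-incubation; NanoLuc signal was measured.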
A word on the EC50: it is the concentration giving half of the maximal effect. Turning to `CC(C)n1nc(C(=O)NCc2ccc(NC(=O)N3CC4(CCCN(C)C4)C3)cc2)c2c1[C@@H](C)CN(c1ccc(C(=O)N(C)C)cc1)C2` [Example 741, (S)-5-(4-(dimethylcarbamoyl)phenyl)-1-isopropyl-7-methyl-N-(4-(6-methyl-2,6-diazaspiro[3.5]nonane-2-carboxamido)benzyl)-4,5,6,7-tetrahydro-1H-pyrazolo[4,3-c]pyridine-3-carboxamide], the EC50 stood at 1 nM.
To `CC(C)n1nc(C(=O)NCc2ccc(NC(=O)N3CCC4(CC3)CN(C)C4)cc2)c2c1[C@@H](C)CN(c1ccc(C(=O)N(C)C)cc1)C2` [Example 742, (S)-5-(4-(dimethylcarbamoyl)phenyl)-1-isopropyl-7-methyl-N-(4-(2-methyl-2,7-diazaspiro[3.5]nonane-7-carboxamido)benzyl)-4,5,6,7-tetrahydro-1H-pyrazolo[4,3-c]pyridine-3-carboxamide] belongs 1 nM.
To `CC(C)n1nc(C(=O)NCc2ccc(NC(=O)N3CCN(C)[C@H](C)C3)cc2)c2c1[C@@H](C)CN(c1ccc(C(=O)N(C)C)cc1)C2` [Example 743, (S)-5-(4-(dimethylcarbamoyl)phenyl)-N-(4-((R)-3,4-dimethylpiperazine-1-carboxamido)benzyl)-1-isopropyl-7-methyl-4,5,6,7-tetrahydro-1H-pyrazolo[4,3-c]pyridine-3-carboxamide] belongs 1 nM; to `CCN1CCN(C(=O)Nc2ccc(CNC(=O)c3nn(C(C)C)c4c3CN(c3ccc(C(=O)N(C)C)cc3)C[C@@H]4C)cc2)CC1` [Example 745, (S)-5-(4-(dimethylcarbamoyl)phenyl)-N-(4-(4-ethylpiperazine-1-carboxamido)benzyl)-1-isopropyl-7-methyl-4,5,6,7-tetrahydro-1H-pyrazolo[4,3-c]pyridine-3-carboxamide], 1 nM; to `CC(C)n1nc(C(=O)NCc2ccc(NC(=O)N3CC(N(C)C)C3)cc2)c2c1[C@@H](C)CN(c1ccc(C(=O)N(C)C)cc1)C2` [Example 746, (S)-N-(4-(3-(dimethylamino)azetidine-1-carboxamido)benzyl)-5-(4-(dimethylcarbamoyl)phenyl)-1-isopropyl-7-methyl-4,5,6,7-tetrahydro-1H-pyrazolo[4,3-c]pyridine-3-carboxamide], 1 nM.
With `CC(C)n1nc(C(=O)NCc2ccc(NC(=O)N3CC[C@H](N(C)C)C3)cc2)c2c1[C@@H](C)CN(c1ccc(C(=O)N(C)C)cc1)C2` [Example 747, (S)-N-(4-((S)-3-(dimethylamino)pyrrolidine-1-carboxamido)benzyl)-5-(4-(dimethylcarbamoyl)phenyl)-1-isopropyl-7-methyl-4,5,6,7-tetrahydro-1H-pyrazolo[4,3-c]pyridine-3-carboxamide], the EC50 amounted to 1 nM.
`CC(C)n1nc(C(=O)NCc2ccc(NC(=O)N3CC(C)(N(C)C)C3)cc2)c2c1[C@@H](C)CN(c1ccc(C(=O)N(C)C)cc1)C2` [Example 748, (S)-N-(4-(3-(dimethylamino)-3-methylazetidine-1-carboxamido)benzyl)-5-(4-(dimethylcarbamoyl)phenyl)-1-isopropyl-7-methyl-4,5,6,7-tetrahydro-1H-pyrazolo[4,3-c]pyridine-3-carboxamide]: the EC50 amounted to 1 nM.
Take `CC(C)n1nc(C(=O)NCc2ccc(NC(=O)N3CCC4(CCN(C)CC4)CC3)cc2)c2c1[C@@H](C)CN(c1ccc(C(=O)N(C)C)cc1)C2` [Example 749, (S)-N-(4-((5-(4-(dimethylcarbamoyl)phenyl)-1-isopropyl-7-methyl-4,5,6,7-tetrahydro-1H-pyrazolo[4,3-c]pyridine-3-carboxamido)methyl)phenyl)-9-methyl-3,9-diazaspiro[5.5]undecane-3-carboxamide]: the EC50 was 0.4 nM.
To `CC(C)n1nc(C(=O)NCc2ccc(NC(=O)N3CC[C@@H](N(C)C)C3)cc2)c2c1[C@@H](C)CN(c1ccc(C(=O)N(C)C)cc1)C2` [Example 750, (S)-N-(4-((R)-3-(dimethylamino)pyrrolidine-1-carboxamido)benzyl)-5-(4-(dimethylcarbamoyl)phenyl)-1-isopropyl-7-methyl-4,5,6,7-tetrahydro-1H-pyrazolo[4,3-c]pyridine-3-carboxamide] belongs 1 nM; to `CC(C)n1nc(C(=O)NCc2ccc(NC(=O)N3CC4(CN(C)C4)C3)cc2)c2c1[C@@H](C)CN(c1ccc(C(=O)N(C)C)cc1)C2` [Example 751, (S)-5-(4-(dimethylcarbamoyl)phenyl)-1-isopropyl-7-methyl-N-(4-(6-methyl-2,6-diazaspiro[3.3]heptane-2-carboxamido)benzyl)-4,5,6,7-tetrahydro-1H-pyrazolo[4,3-c]pyridine-3-carboxamide], 9 nM; to `CC(C)n1nc(C(=O)NCc2ccc(NC(=O)N3CCC(C)(N(C)C)C3)cc2)c2c1[C@@H](C)CN(c1ccc(C(=O)N(C)C)cc1)C2` (stereo partly drawn) [Example 752, (7S)-N-(4-(3-(dimethylamino)-3-methylpyrrolidine-1-carboxamido)benzyl)-5-(4-(dimethylcarbamoyl)phenyl)-1-isopropyl-7-methyl-4,5,6,7-tetrahydro-1H-pyrazolo[4,3-c]pyridine-3-carboxamide], 2 nM.
To `CC(C)n1nc(C(=O)NCc2ccc(NC(=O)N3CCC4(CCN(C)C4)CC3)cc2)c2c1[C@@H](C)CN(c1ccc(C(=O)N(C)C)cc1)C2` [Example 753, (S)-N-(4-((5-(4-(dimethylcarbamoyl)phenyl)-1-isopropyl-7-methyl-4,5,6,7-tetrahydro-1H-pyrazolo[4,3-c]pyridine-3-carboxamido)methyl)phenyl)-2-methyl-2,8-diazaspiro[4.5]decane-8-carboxamide] belongs 0.5 nM.
With `CC(C)n1nc(C(=O)NCc2ccc(NC(=O)N3CCC[C@@H](N(C)C)C3)cc2)c2c1[C@@H](C)CN(c1ccc(C(=O)N(C)C)cc1)C2` [Example 754, (S)-N-(4-((R)-3-(dimethylamino)piperidine-1-carboxamido)benzyl)-5-(4-(dimethylcarbamoyl)phenyl)-1-isopropyl-7-methyl-4,5,6,7-tetrahydro-1H-pyrazolo[4,3-c]pyridine-3-carboxamide] the figure was 2 nM; with `CC(C)n1nc(C(=O)NCc2ccc(NC(=O)N3CCC[C@H](N(C)C)C3)cc2)c2c1[C@@H](C)CN(c1ccc(C(=O)N(C)C)cc1)C2` [Example 755, (S)-N-(4-((S)-3-(dimethylamino)piperidine-1-carboxamido)benzyl)-5-(4-(dimethylcarbamoyl)phenyl)-1-isopropyl-7-methyl-4,5,6,7-tetrahydro-1H-pyrazolo[4,3-c]pyridine-3-carboxamide], 2 nM; with `CC(C)n1nc(C(=O)NCc2ccc(NC(=O)N3CC[C@H](CN(C)C)C3)cc2)c2c1[C@@H](C)CN(c1ccc(C(=O)N(C)C)cc1)C2` [Example 756, (S)-N-(4-((R)-3-((dimethylamino)methyl)pyrrolidine-1-carboxamido)benzyl)-5-(4-(dimethylcarbamoyl)phenyl)-1-isopropyl-7-methyl-4,5,6,7-tetrahydro-1H-pyrazolo[4,3-c]pyridine-3-carboxamide], 1 nM.
For `CC(C)n1nc(C(=O)NCc2ccc(NC(=O)N3CCC4(CCCN(C)C4)CC3)cc2)c2c1[C@@H](C)CN(c1ccc(C(=O)N(C)C)cc1)C2` [Example 757, (S)-N-(4-((5-(4-(dimethylcarbamoyl)phenyl)-1-isopropyl-7-methyl-4,5,6,7-tetrahydro-1H-pyrazolo[4,3-c]pyridine-3-carboxamido)methyl)phenyl)-2-methyl-2,9-diazaspiro[5.5]undecane-9-carboxamide], the EC50 was found to be 0.3 nM.
